Measured values reported in ChEMBL document CHEMBL1275533, “In vitro antibacterial activity of vertilmicin and its susceptibility to modifications by the recombinant AAC6'-APH2'' enzyme” (2008).
≈ marks a conversion by molar mass, not a printed value. Calls of active or inactive are those of the source. The calls are words filed in the database; no cut-off is given here.

Key:
[1] = system: Escherichia coli; experiment: Antibacterial activity against gentamicin-resistant Escherichia coli clinical isolate assessed as susceptible isolates after 18 hrs by agar dilution method; type: functional
[2] = system: Haemophilus parainfluenzae; experiment: Antibacterial activity against non-gentamicin-resistant Haemophilus parainfluenzae clinical isolate assessed as susceptible isolates after 18 hrs by agar dilution method; type: functional, organism-based
[3] = system: Enterobacter cloacae; experiment: Antibacterial activity against gentamicin-resistant Enterobacter cloacae clinical isolate after 18 hrs by agar dilution method; type: functional
[4] = system: Pseudomonas sp.; experiment: Antibacterial activity against gentamicin-resistant Pseudomonas spp. clinical isolate after 18 hrs by agar dilution method; type: functional
[5] = system: Citrobacter freundii; experiment: Antibacterial activity against non-gentamicin-resistant Citrobacter freundii clinical isolate assessed as susceptible isolates after 18 hrs by agar dilution method; type: functional
[6] = system: Serratia marcescens; experiment: Antibacterial activity against gentamicin-resistant Serratia marcescens clinical isolate assessed as susceptible isolates after 18 hrs by agar dilution method; type: functional
[7] = system: Staphylococcus aureus; experiment: Antibacterial activity against gentamicin-resistant Staphylococcus aureus clinical isolate after 18 hrs by agar dilution method; type: functional
[8] = system: Escherichia coli; experiment: Antibacterial activity against non-gentamicin-resistant Escherichia coli clinical isolate after 18 hrs by agar dilution method; type: functional
[9] = system: Citrobacter koseri; experiment: Antibacterial activity against non-gentamicin-resistant Citrobacter diversus clinical isolate after 18 hrs by agar dilution method; type: functional
[10] = system: Citrobacter koseri; experiment: Antibacterial activity against gentamicin-resistant Citrobacter diversus clinical isolate assessed as susceptible isolates after 18 hrs by agar dilution method; type: functional
[11] = system: Pseudomonas aeruginosa; experiment: Antibacterial activity against non-gentamicin-resistant Pseudomonas aeruginosa clinical isolate assessed as susceptible isolates after 18 hrs by agar dilution method; type: functional
[12] = system: Citrobacter freundii; experiment: Antibacterial activity against gentamicin-resistant Citrobacter freundii clinical isolate assessed as susceptible isolates after 18 hrs by agar dilution method; type: functional
[13] = system: Klebsiella aerogenes; experiment: Antibacterial activity against gentamicin-resistant Enterobacter aerogenes clinical isolate after 18 hrs by agar dilution method; type: functional
[14] = system: Klebsiella pneumoniae; experiment: Antibacterial activity against non-gentamicin-resistant Klebsiella pneumoniae clinical isolate after 18 hrs by agar dilution method; type: functional
[15] = system: Enterobacter cloacae; experiment: Antibacterial activity against gentamicin-resistant Enterobacter cloacae clinical isolate assessed as susceptible isolates after 18 hrs by agar dilution method; type: functional
[16] = system: Staphylococcus epidermidis; experiment: Antibacterial activity against non-gentamicin-resistant Staphylococcus epidermidis clinical isolate after 18 hrs by agar dilution method; type: functional
[17] = system: Escherichia coli BL21(DE3); experiment: Acetylation activity of AAC(6')-APH(2'') in Escherichia coli BL21(DE3) assessed as production of free pyridine-4-thiolate
[18] = system: Pseudomonas aeruginosa; experiment: Antibacterial activity against gentamicin-resistant Pseudomonas aeruginosa clinical isolate after 18 hrs by agar dilution method; type: functional
[19] = system: Morganella morganii; experiment: Antibacterial activity against gentamicin-resistant Morganella morganii clinical isolate assessed as susceptible isolates after 18 hrs by agar dilution method; type: functional
[20] = system: Klebsiella pneumoniae; experiment: Antibacterial activity against gentamicin-resistant Klebsiella pneumoniae clinical isolate after 18 hrs by agar dilution method; type: functional
[21] = system: Pseudomonas sp.; experiment: Antibacterial activity against gentamicin-resistant Pseudomonas spp. clinical isolate assessed as susceptible isolates after 18 hrs by agar dilution method; type: functional
[22] = system: Pseudomonas sp.; experiment: Antibacterial activity against non-gentamicin-resistant Pseudomonas spp. clinical isolate after 18 hrs by agar dilution method; type: functional
[23] = system: Staphylococcus aureus; experiment: Antibacterial activity against gentamicin-resistant Staphylococcus aureus clinical isolate assessed as susceptible isolates after 18 hrs by agar dilution method; type: functional
[24] = system: Morganella morganii; experiment: Antibacterial activity against non-gentamicin-resistant Morganella morganii clinical isolate after 18 hrs by agar dilution method; type: functional
[25] = system: Enterobacter cloacae; experiment: Antibacterial activity against non-gentamicin-resistant Enterobacter cloacae clinical isolate after 18 hrs by agar dilution method; type: functional
[26] = system: Citrobacter freundii; experiment: Antibacterial activity against non-gentamicin-resistant Citrobacter freundii clinical isolate after 18 hrs by agar dilution method; type: functional
[27] = system: Haemophilus influenzae; experiment: Antibacterial activity against non-gentamicin-resistant Haemophilus influenzae clinical isolate after 18 hrs by agar dilution method; type: functional
[28] = system: Staphylococcus epidermidis; experiment: Antibacterial activity against gentamicin-resistant Staphylococcus epidermidis clinical isolate assessed as susceptible isolates after 18 hrs by agar dilution method; type: functional
[29] = system: Acinetobacter calcoaceticus; experiment: Antibacterial activity against gentamicin-resistant Acinetobacter calcoaceticus clinical isolate after 18 hrs by agar dilution method; type: functional
[30] = system: Citrobacter freundii; experiment: Antibacterial activity against gentamicin-resistant Citrobacter freundii clinical isolate after 18 hrs by agar dilution method; type: functional
[31] = system: Pseudomonas sp.; experiment: Antibacterial activity against non-gentamicin-resistant Pseudomonas spp. clinical isolate assessed as susceptible isolates after 18 hrs by agar dilution method; type: functional
[32] = system: Klebsiella aerogenes; experiment: Antibacterial activity against non-gentamicin-resistant Enterobacter aerogenes clinical isolate assessed as susceptible isolates after 18 hrs by agar dilution method; type: functional
[33] = system: Escherichia coli BL21(DE3); experiment: Phosphorylation activity of AAC(6')-APH(2'') in Escherichia coli BL21(DE3) assessed as oxidation of NADH by pyruvate kinase
[34] = system: Acinetobacter calcoaceticus; experiment: Antibacterial activity against gentamicin-resistant Acinetobacter calcoaceticus clinical isolate assessed as susceptible isolates after 18 hrs by agar dilution method; type: functional
[35] = system: Acinetobacter calcoaceticus; experiment: Antibacterial activity against non-gentamicin-resistant Acinetobacter calcoaceticus clinical isolate assessed as susceptible isolates after 18 hrs by agar dilution method; type: functional
[36] = system: Klebsiella pneumoniae; experiment: Antibacterial activity against gentamicin-resistant Klebsiella pneumoniae clinical isolate assessed as susceptible isolates after 18 hrs by agar dilution method; type: functional
[37] = system: Haemophilus parainfluenzae; experiment: Antibacterial activity against non-gentamicin-resistant Haemophilus parainfluenzae clinical isolate after 18 hrs by agar dilution method; type: functional
[38] = system: Providencia rettgeri; experiment: Antibacterial activity against gentamicin-resistant Proteus rettgeri clinical isolate after 18 hrs by agar dilution method; type: functional
[39] = system: Enterobacter cloacae; experiment: Antibacterial activity against non-gentamicin-resistant Enterobacter cloacae clinical isolate assessed as susceptible isolates after 18 hrs by agar dilution method; type: functional
[40] = system: Pseudomonas aeruginosa; experiment: Antibacterial activity against non-gentamicin-resistant Pseudomonas aeruginosa clinical isolate after 18 hrs by agar dilution method; type: functional
[41] = system: Morganella morganii; experiment: Antibacterial activity against gentamicin-resistant Morganella morganii clinical isolate after 18 hrs by agar dilution method; type: functional
[42] = system: Serratia marcescens; experiment: Antibacterial activity against non-gentamicin-resistant Serratia marcescens clinical isolate after 18 hrs by agar dilution method; type: functional
[43] = system: Serratia marcescens; experiment: Antibacterial activity against gentamicin-resistant Serratia marcescens clinical isolate after 18 hrs by agar dilution method; type: functional
[44] = system: Proteus mirabilis; experiment: Antibacterial activity against non-gentamicin-resistant Proteus mirabilis clinical isolate assessed as susceptible isolates after 18 hrs by agar dilution method; type: functional
[45] = system: Proteus mirabilis; experiment: Antibacterial activity against gentamicin-resistant Proteus mirabilis clinical isolate after 18 hrs by agar dilution method; type: functional
[46] = system: Staphylococcus epidermidis; experiment: Antibacterial activity against non-gentamicin-resistant Staphylococcus epidermidis clinical isolate assessed as susceptible isolates after 18 hrs by agar dilution method; type: functional

CN[C@@H]1[C@@H](O)[C@@H](O[C@@H]2[C@@H](O)[C@H](O[C@@H]3OC(C(C)N)=CC[C@@H]3N)[C@@H](N)C[C@H]2N)OC[C@]1(C)O (some centres not stated) [VERDAMICIN]
Activity [1]: 3.5%
Activity [2]: inactive
MIC50 [3]: 128 µg/mL (≈ 277 µM)
MIC90 [3]: > 128 µg/mL
MIC50 [4]: 128 µg/mL (≈ 277 µM)
MIC90 [4]: > 128 µg/mL
Activity [5]: 72.2%
Activity [6]: 10%
MIC50 [7]: 32 µg/mL (≈ 69.3 µM)
MIC90 [7]: > 128 µg/mL
MIC50 [8]: 0.5 µg/mL (≈ 1.08 µM)
MIC90 [8]: 0.5 µg/mL (≈ 1.08 µM)
MIC [9]: 0.25 µg/mL (≈ 0.542 µM)
MIC50 [9]: 0.25 µg/mL (≈ 0.542 µM)
MIC90 [9]: 0.5 µg/mL (≈ 1.08 µM)
Activity [10]: 0%
Activity [11]: 86.9%
Activity [12]: 26.3%
MIC50 [13]: > 128 µg/mL
MIC90 [13]: > 128 µg/mL
MIC50 [14]: 0.25 µg/mL (≈ 0.542 µM)
MIC90 [14]: 0.5 µg/mL (≈ 1.08 µM)
Activity [15]: 5.3%
MIC50 [16]: 0.5 µg/mL (≈ 1.08 µM)
MIC90 [16]: 32 µg/mL (≈ 69.3 µM)
Km [17]: 656 µM
MIC50 [18]: > 128 µg/mL
MIC90 [18]: > 128 µg/mL
Activity [19]: 8.3%
MIC50 [20]: 128 µg/mL (≈ 277 µM)
MIC90 [20]: > 128 µg/mL
Activity [21]: 3.8%
MIC50 [22]: 2 µg/mL (≈ 4.33 µM)
MIC90 [22]: 8 µg/mL (≈ 17.3 µM)
Activity [23]: 5.6%
MIC50 [24]: 1 µg/mL (≈ 2.17 µM)
MIC90 [24]: 2 µg/mL (≈ 4.33 µM)
MIC [25]: 0.25 µg/mL (≈ 0.542 µM)
MIC50 [25]: 0.25 µg/mL (≈ 0.542 µM)
MIC90 [25]: 0.5 µg/mL (≈ 1.08 µM)
MIC50 [26]: 0.5 µg/mL (≈ 1.08 µM)
MIC90 [26]: 64 µg/mL (≈ 139 µM)
MIC50 [27]: 1 µg/mL (≈ 2.17 µM)
MIC90 [27]: 1 µg/mL (≈ 2.17 µM)
Activity [28]: 50%
MIC50 [29]: > 128 µg/mL
MIC90 [29]: > 128 µg/mL
MIC50 [30]: 32 µg/mL (≈ 69.3 µM)
MIC90 [30]: > 128 µg/mL
Activity [31]: 100%
Activity [32]: 98.1%
Km [33]: 41.4 µM
Activity [34]: 16%
Activity [35]: 98%
Activity [36]: 10.7%
MIC50 [37]: 1 µg/mL (≈ 2.17 µM)
MIC90 [37]: 2 µg/mL (≈ 4.33 µM)
MIC50 [38]: 32 µg/mL (≈ 69.3 µM)
MIC90 [38]: 128 µg/mL (≈ 277 µM)
Activity [39]: 98.2%
MIC50 [40]: 8 µg/mL (≈ 17.3 µM)
MIC90 [40]: 16 µg/mL (≈ 34.7 µM)
MIC50 [41]: 64 µg/mL (≈ 139 µM)
MIC90 [41]: 128 µg/mL (≈ 277 µM)
MIC50 [42]: 0.25 µg/mL (≈ 0.542 µM)
MIC90 [42]: 0.5 µg/mL (≈ 1.08 µM)
MIC50 [43]: > 128 µg/mL
MIC90 [43]: > 128 µg/mL
Activity [44]: 100%
MIC50 [45]: > 128 µg/mL
MIC90 [45]: > 128 µg/mL
Activity [46]: 75%
